One experiment concerns the target T1, SYK kinase (Homo sapiens, UniProt P43405).
T1 construct: purchased Invitrogen, Carlsbad
Briefly: SYK Assay (OMNIA Kinase Assay, SOX peptide fluorescence). In kind it is biochemical. The following applies: 1 mM ATP, 10 μM Omnia Peptide Substrate Tyr 7, 30° C., readings for 30 minutes; read-out: SYK Activities: IC50. In outline:
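The reaction was run at 30 °C with 1 mM ATP, 0.2 mM DTT and 10 μM Omnia Tyr 7 peptide (final) and started by adding SYK. Chelation-enhanced SOX fluorescence (ex 360/em 485 nm) was read every 30 s for 30 min. Reaction velocity versus inhibitor concentration was fitted sigmoidally for IC50.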

The target of another experiment is LRRK2 (Homo sapiens, UniProt Q5S007). Briefly: LRRK2-LRRK2 G2019S-Assay (LanthaScreen Eu Kinase Binding Assay). Particulars: 5 nM LRRK2, 10 nM tracer 236, 2 nM EU-Anti-GST antibody, 1 h at RT; read-out: LRRK2 Activities: IC50. In outline:
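In a TR-FRET tracer displacement assay, LRRK2 or its mutants at 5 nM were mixed with 2 nM Eu-anti-GST antibody and 10 nM tracer 236 in kinase buffer A for 1 h at RT. The 665/615 nm emission ratio was plotted against inhibitor concentration, and IC50 came from a variable-slope sigmoidal fit.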
(TR-FRET usually uses a lanthanide donor and a delayed reading to cut background.)

Our source for the IC50 values is US10752624B2, “Kinase inhibitors” (Origenis GmbH, priority 2012, dated 2020).

Each structure is given as a SMILES string.

A word on the IC50: it is the midpoint of a concentration-inhibition curve.

Chain of LRRK2 (Q5S007 970-2527 limits assumed): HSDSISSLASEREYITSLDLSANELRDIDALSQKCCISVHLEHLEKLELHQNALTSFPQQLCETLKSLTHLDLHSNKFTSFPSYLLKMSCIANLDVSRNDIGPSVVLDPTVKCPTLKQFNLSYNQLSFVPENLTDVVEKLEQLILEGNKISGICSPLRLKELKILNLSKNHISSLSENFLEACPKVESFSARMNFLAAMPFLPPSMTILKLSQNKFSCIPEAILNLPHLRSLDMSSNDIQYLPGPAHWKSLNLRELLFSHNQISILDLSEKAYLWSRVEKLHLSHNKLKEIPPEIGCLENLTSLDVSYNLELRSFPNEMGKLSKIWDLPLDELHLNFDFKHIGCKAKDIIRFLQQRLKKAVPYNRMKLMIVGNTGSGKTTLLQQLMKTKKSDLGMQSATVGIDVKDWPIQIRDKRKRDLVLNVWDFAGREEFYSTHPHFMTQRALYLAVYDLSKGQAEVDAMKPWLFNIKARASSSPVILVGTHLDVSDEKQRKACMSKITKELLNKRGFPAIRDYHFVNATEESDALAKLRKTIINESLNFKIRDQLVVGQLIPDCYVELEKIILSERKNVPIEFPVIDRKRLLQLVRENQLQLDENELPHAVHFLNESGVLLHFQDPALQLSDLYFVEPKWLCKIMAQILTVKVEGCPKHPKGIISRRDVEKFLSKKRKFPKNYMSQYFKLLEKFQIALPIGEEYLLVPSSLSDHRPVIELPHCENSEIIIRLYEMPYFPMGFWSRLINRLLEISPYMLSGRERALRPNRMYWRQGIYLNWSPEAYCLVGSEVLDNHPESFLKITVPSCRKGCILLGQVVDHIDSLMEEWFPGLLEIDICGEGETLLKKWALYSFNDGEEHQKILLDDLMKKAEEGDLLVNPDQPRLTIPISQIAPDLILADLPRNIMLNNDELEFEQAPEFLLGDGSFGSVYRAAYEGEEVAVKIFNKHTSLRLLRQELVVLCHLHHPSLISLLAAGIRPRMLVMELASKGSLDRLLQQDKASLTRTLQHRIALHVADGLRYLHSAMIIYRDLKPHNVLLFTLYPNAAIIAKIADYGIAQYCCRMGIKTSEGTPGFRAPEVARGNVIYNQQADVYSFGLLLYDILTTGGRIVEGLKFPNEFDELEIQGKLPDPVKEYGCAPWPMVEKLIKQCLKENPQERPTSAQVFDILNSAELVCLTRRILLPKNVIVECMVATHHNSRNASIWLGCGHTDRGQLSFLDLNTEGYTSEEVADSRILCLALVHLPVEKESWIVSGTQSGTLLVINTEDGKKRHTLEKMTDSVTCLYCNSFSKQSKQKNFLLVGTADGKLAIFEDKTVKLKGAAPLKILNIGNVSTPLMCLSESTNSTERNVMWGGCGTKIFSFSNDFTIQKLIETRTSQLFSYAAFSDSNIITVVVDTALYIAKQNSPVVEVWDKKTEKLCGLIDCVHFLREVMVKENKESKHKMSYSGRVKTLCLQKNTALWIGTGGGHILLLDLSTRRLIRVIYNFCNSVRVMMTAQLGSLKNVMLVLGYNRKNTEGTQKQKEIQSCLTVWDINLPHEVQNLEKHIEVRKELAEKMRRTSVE

Consider `CS(=O)(=O)c1ccc2c(c1)nc(Nc1ccc3c(c1)NC(=O)CCC3)c1[nH]ncc12` [Example 119, 8-((7-(methylsulfonyl)-3H-pyrazolo[3,4-c]quinolin-4-yl)amino)-4,5-dihydro-1H-benzo[b]azepin-2(3H)-one], for which the IC50 lay in the range of 10 to 100 nM on SYK kinase and 100 to 1000 nM at LRRK2.
For `Brc1ccc2c(c1)nc(Nc1cnn(C3CCOCC3)c1)c1n[nH]cc12` [Example 348, 7-bromo-N-(1-(tetrahydro-2H-pyran-4-yl)-1H-pyrazol-4-yl)-2H-pyrazolo[3,4-c]quinolin-4-amine], the IC50 is 10 to 100 nM at SYK kinase and under 10 nM on LRRK2.
The corresponding values for `COc1ccc2nc(Nc3cnn(C)c3)c3n[nH]cc3c2c1` [Example 83, 8-methoxy-N-(1-methyl-1H-pyrazol-4-yl)-2H-pyrazolo[3,4-c]quinolin-4-amine] are 100 to 1000 nM and 10 to 100 nM.
`CC(C)n1ncc(Nc2nc3ccc(S(C)(=O)=O)cc3c3cn[nH]c23)c1C#N` [Example 247, 1-isopropyl-4-((8-(methylsulfonyl)-3H-pyrazolo[3,4-c]quinolin-4-yl)amino)-1H-pyrazole-5-carbonitrile]: the 50% inhibitory concentration (IC50) on SYK kinase was 100 to 1000 nM; on LRRK2, under 10 nM.
The corresponding values for `COCCCn1cc(Nc2nc3cc(S(C)(=O)=O)ccc3c3cn[nH]c23)cn1` [Example 190, N-(1-(3-methoxypropyl)-1H-pyrazol-4-yl)-7-(methylsulfonyl)-3H-pyrazolo[3,4-c]quinolin-4-amine] are 10 to 100 nM and 10 to 100 nM.
In the same order, the values of `CS(=O)(=O)c1ccc2nc(Nc3cnn(C4COC4)c3)c3[nH]ncc3c2c1` [Example 173, 8-(methylsulfonyl)-N-(1-(oxetan-3-yl)-1H-pyrazol-4-yl)-3H-pyrazolo[3,4-c]quinolin-4-amine] are under 10 nM and 10 to 100 nM.
The corresponding values for `COc1cccc2nc(Nc3cnn(C4CCN(C(C)(C)C)CC4)c3)c3[nH]ncc3c12` [Example 206, N-(1-(1-(tert-butyl)piperidin-4-yl)-1H-pyrazol-4-yl)-9-methoxy-3H-pyrazolo[3,4-c]quinolin-4-amine] are 10 to 100 nM and under 10 nM.
For `COc1ccc(Nc2nc3cc(S(C)(=O)=O)ccc3c3cn[nH]c23)cc1OC` [Example 302, N-(3,4-dimethoxyphenyl)-7-(methylsulfonyl)-3H-pyrazolo[3,4-c]quinolin-4-amine], the IC50 at SYK kinase and on LRRK2 was 100 to 1000 nM throughout.
`CC(C)(C)N1CCN(c2ccc(Nc3nc4ccc(S(C)(=O)=O)cc4c4cn[nH]c34)cc2)CC1` [Example 80, N-(4-(4-(tert-butyl)piperazin-1-yl)phenyl)-8-(methylsulfonyl)-3H-pyrazolo[3,4-c]quinolin-4-amine]: the IC50 at SYK kinase and at LRRK2 was 10 to 100 nM throughout.
Regarding `CS(=O)(=O)c1ccc2c(c1)nc(Nc1cnn(CCO)c1)c1[nH]ncc12` [Example 193, 2-(4-((7-(methylsulfonyl)-3H-pyrazolo[3,4-c]quinolin-4-yl)amino)-1H-pyrazol-1-yl)ethan-1-ol], the half-inhibitory concentration (IC50) at SYK kinase is 10 to 100 nM; at LRRK2, under 10 nM.
The corresponding values for `COc1cccc2c1nc(Nc1cnn(C3CCOCC3)c1)c1[nH]ncc12` [Example 307, 6-methoxy-N-(1-(tetrahydro-2H-pyran-4-yl)-1H-pyrazol-4-yl)-3H-pyrazolo[3,4-c]quinolin-4-amine] are 100 to 1000 nM and 100 to 1000 nM.
The corresponding values for `COc1ccc2nc(Nc3cnn(C4CCOCC4)c3)c3n[nH]cc3c2c1` [Example 85, 8-methoxy-N-(1-(tetrahydro-2H-pyran-4-yl)-1H-pyrazol-4-yl)-2H-pyrazolo[3,4-c]quinolin-4-amine] are 100 to 1000 nM and 10 to 100 nM.
In the same order, the values of `CS(=O)(=O)c1ccc2nc(Nc3cnn(C4CC4)c3)c3[nH]ncc3c2c1` [Example 203, N-(1-cyclopropyl-1H-pyrazol-4-yl)-8-(methylsulfonyl)-3H-pyrazolo[3,4-c]quinolin-4-amine] are under 10 nM and under 10 nM.
Consider `CS(=O)(=O)c1ccc2nc(Nc3cnn(C4(C#N)CCCCC4)c3)c3[nH]ncc3c2c1` [Example 179, 1-(4-((8-(methylsulfonyl)-3H-pyrazolo[3,4-c]quinolin-4-yl)amino)-1H-pyrazol-1-yl)cyclohexanecarbonitrile], for which the figures for the IC50 on SYK kinase and at LRRK2 were 10 to 100 nM and under 10 nM, respectively.
In the same order, the values of `COc1cccc2nc(Nc3cnn(CCO)c3)c3[nH]ncc3c12` [Example 199, 2-(4-((9-methoxy-3H-pyrazolo[3,4-c]quinolin-4-yl)amino)-1H-pyrazol-1-yl)ethan-1-ol] are 100 to 1000 nM and under 10 nM.
In the same order, the values of `CS(=O)(=O)c1ccc2nc(Nc3ccc4c(c3)NC(=O)CS4)c3n[nH]cc3c2c1` [Example 344, 6-((8-(methylsulfonyl)-2H-pyrazolo[3,4-c]quinolin-4-yl)amino)-2H-benzo[b][1,4]thiazin-3(4H)-one] are under 10 nM and 10 to 100 nM.
The corresponding values for `CSc1ccc2nc(Nc3ccc4c(c3)CN(C)C4)c3[nH]ncc3c2c1` [Example 49, N-(2-methylisoindolin-5-yl)-8-(methylthio)-3H-pyrazolo[3,4-c]quinolin-4-amine] are 100 to 1000 nM and 10 to 100 nM.
With `CS(=O)(=O)c1ccc2nc(Nc3ccc4c(c3)NC(=O)CCC4)c3[nH]ncc3c2c1` [Example 77, 8-((8-(methylsulfonyl)-3H-pyrazolo[3,4-c]quinolin-4-yl)amino)-4,5-dihydro-1H-benzo[b]azepin-2(3H)-one], the IC50 on SYK kinase and at LRRK2 was under 10 nM in each case.
With `CSc1ccc2nc(Nc3ccc4c(c3)NC(=O)CC4)c3[nH]ncc3c2c1` [Example 47, 7-((8-(methylthio)-3H-pyrazolo[3,4-c]quinolin-4-yl)amino)-3,4-dihydroquinolin-2(1H)-one], the IC50 on SYK kinase and at LRRK2 was under 10 nM throughout.
`CC(C(=O)O)n1cc(Nc2nc3ccc(S(C)(=O)=O)cc3c3c[nH]nc23)cn1` (stereo not shown) [Example 334, 2-(4-((8-(methylsulfonyl)-2H-pyrazolo[3,4-c]quinolin-4-yl)amino)-1H-pyrazol-1-yl)propanoic acid]: the IC50 on SYK kinase and at LRRK2 was 10 to 100 nM each time.
As to `COc1nn(C(C)C)cc1Nc1nc2ccc(S(C)(=O)=O)cc2c2cn[nH]c12` [Example 226, N-(1-isopropyl-3-methoxy-1H-pyrazol-4-yl)-8-(methylsulfonyl)-3H-pyrazolo[3,4-c]quinolin-4-amine], the 50% inhibitory concentration (IC50) at SYK kinase is 100 to 1000 nM; at LRRK2 it was under 10 nM.
For `CC(C)(O)Cn1cc(Nc2nc3cc(S(C)(=O)=O)ccc3c3cn[nH]c23)cn1` [Example 329, 2-methyl-1-(4-((7-(methylsulfonyl)-3H-pyrazolo[3,4-c]quinolin-4-yl)amino)-1H-pyrazol-1-yl)propan-2-ol], the 50% inhibitory concentration (IC50) was in the range of 10 to 100 nM on SYK kinase and 100 to 1000 nM at LRRK2.
The corresponding values for `CC(C)(C#N)n1cc(Nc2nc3cc(S(C)(=O)=O)ccc3c3cn[nH]c23)cn1` [Example 191, 2-methyl-2-(4-((7-(methylsulfonyl)-3H-pyrazolo[3,4-c]quinolin-4-yl)amino)-1H-pyrazol-1-yl)propanenitrile] are 100 to 1000 nM and 10 to 100 nM.
